Data on eleven compounds can be found in ChEMBL document CHEMBL1136673, “Synthesis of low molecular weight compounds with complement inhibition activity” (Bioorg Med Chem Lett, 2003).

One may read the EC50 as the concentration that produces a half-maximal response. A word on the IC50: it is the concentration at which inhibition is half-maximal.

What all share (type): functional, organism-based
The species named for test [1] is Ovis aries. Description: The concentration effective to cause 50% hemolysis with sensitized sheep erythrocytes in the absence of complement.
The species named for test [2] is Ovis aries. Description: The concentration required to inhibit complement mediated hemolysis of sensitized sheep RBC; not active.
Test [3] is filed under the species Ovis aries. Put plainly: Concentration effective to cause 50% hemolysis with sensitized sheep erythrocytes in the absence of complement.
The species named for test [4] is Ovis aries. Put plainly: The concentration required to inhibit complement mediated hemolysis of sensitized sheep RBC.
Test [5] is filed under the species Ovis aries. Put plainly: Concentration required to inhibit complement mediated hemolysis of sensitized sheep RBC.

With `COc1cccc(C(=O)O)c1`, in the test listed under Ovis aries [1], the EC50 stood at 2960 µM. Moreover, the 50% inhibitory concentration (IC50) entry in the test filed under Ovis aries [2] is listed as “Not Active”.
As for `CCOc1cccc(C=O)c1`, the concentration for a half-maximal effect (EC50) in the test listed under Ovis aries [3] is greater than 4000 µM. Moreover, the IC50 in the test listed under Ovis aries [4] was 1000 µM.
In the case of `O=Cc1cccc(Oc2ccccc2)c1`, the 50% effective concentration (EC50) in the test filed under Ovis aries [1] was greater than 3.3 µM. Also, in the test listed under Ovis aries [4], the IC50 is 1390 µM.
For `COc1cccc(C=O)c1`, the IC50 in the test filed under Ovis aries [5] was 919 µM. For the same compound, the EC50 in the test listed under Ovis aries [1] is greater than 4410 µM.
In the case of `CCOc1cccc(-c2nn[nH]n2)c1`, the concentration for a half-maximal effect (EC50) in the test listed under Ovis aries [1] was 2210 µM. The concentration for half-maximal inhibition (IC50) in the test filed under Ovis aries [4] stood at 631 µM.
As for `COc1cccc(-c2nn[nH]n2)c1`, the EC50 in the test listed under Ovis aries [1] is greater than 3410 µM. For the same compound, the IC50 in the test filed under Ovis aries [4] came out at 1560 µM.
With `CCOc1cccc(C(=O)O)c1`, the EC50 in the test listed under Ovis aries [1] is 2530 µM. The IC50 entry in the test listed under Ovis aries [2] is “Not Active”.
As to `c1ccc(Oc2cccc(-c3nn[nH]n3)c2)cc1`, the EC50 in the test listed under Ovis aries [1] came to 954 µM. The IC50 in the test listed under Ovis aries [4] is 798 µM.
As to `O=C(O)c1cccc(Oc2ccccc2)c1` [M-PHENOXYBENZOIC ACID FOR CIS-ISOMER], in the test listed under Ovis aries [1], the EC50 is greater than 2800 µM. Moreover, the IC50 in the test listed under Ovis aries [4] was found to be 1400 µM.
Regarding `CC1(C)CC[C@]2(C(=O)O)CC[C@]3(C)C(=CC[C@@H]4[C@@]5(C)CC[C@H](O)C(C)(C)[C@@H]5CC[C@]43C)[C@@H]2C1` [OLEANOLIC_ACID], the IC50 in the test filed under Ovis aries [4] is 76.6 µM.
As to `C[C@H]1[C@H](C)CC[C@]2(C(=O)O)CC[C@]3(C)C(=CC[C@@H]4[C@@]5(C)CC[C@H](O)C(C)(C)[C@@H]5CC[C@]43C)[C@H]12` [URSOLIC ACID], the IC50 in the test filed under Ovis aries [4] is 54.7 µM.
